Laboratory results taken from article PMC11363325, “A Novel Prodrug Strategy Based on Reversibly Degradable Guanidine Imides for High Oral Bioavailability and Prolonged Pharmacokinetics of Broad-Spectrum Anti-influenza Agents” (ACS Central Science, 2024).
Read-outs that look alike come from different tables or passages of the source.

Key:
[1] = authors' response to reviewers, no reference given; cited from earlier work
physchem [2] = type: physicochemical
physchem [3] = type: physicochemical; conditions: pH 7.4
in vitro [4] = type: in vitro ADME; conditions: PAMPA
Procedure: To assess this hypothesis, we conducted the parallel artificial membrane permeability assay (PAMPA) for simulating passive transcellular permeation.[41]
Supplemental Experimental Procedures
In vitro Parallel Artificial Membrane Permeability Assay (PAMPA) […]
evaluated using Parallel Artificial Membrane Permeability Assay Kit (PAMPA-096). Each prodrug and the supplied permeability controls were dissolved in DMSO at the concentration of 10 mM. Then 25 μL of each prodrug solution was mixed with 475 μL of 50 mM sodium phosphate buffer (pH 6.5) to be used as the test solution. GOC/HPMCP and OSC-GCDI/HPCMP particles are dissolved in 50 mM sodium phosphate buffer (5% DMSO, pH 6.5) to achieve a final concentration of 200 µM. In the acceptor plate, 300 μL of 50 mM sodium phosphate buffer (pH 7.4) was added. Subsequently, before adding 200 μL of each test solution to the donor plate, 5 μL of 4% lecithin in dodecane was directly applied to the well membrane of the donor plate. Donor plate was carefully placed into acceptor plate and incubate at r.t. for 16 – 24 h. Donor plate was removed and each solution was collected and filtered by a PVDF filter (0.20 μm pore size). The total prodrug concentration in each plate was determined by HPLC analysis.
In the case of OSC-GCDI(P), partial degradation occurred due to the instability of OSC-GCDI(P) in the buffer. Therefore, the collected solution was further incubated in a 1 M KOH solution for complete hydrolysis. Then, the concentration of GOC was quantified instead.

[5] = Stability of OSC-GCDIs in phosphate buffers; type: physicochemical
[6] = Stability of OSC-GCDIs and GOC release in BALB/c serum; type: in vitro ADME; conditions: mouse; for GOC released: 200 μM
Procedure: (§1) Stability of OSC-GCDIs in serum
Stability of the GCDI prodrugs were examined by incubating prodrugs in human and BALB/c serum at 37 °C and 200 μM final concentration. Briefly, each prodrug was dissolved in DMSO to be 20 mM concentration, then 10 μL of each prodrug solution was mixed with 990 μL of serum. At different time intervals, 100 μL of the samples were taken and mixed with 100 μL of MeCN. Samples were centrifuged at 14,000 rpm for 10 min at 4 °C and the supernatant was immediately frozen (−80 °C). After thawing and shaking, the samples were filtered using a polytetrafluoroethylene (PTFE) filter (0.20 μm pore size) […]
Release profiles of GOC from the OSC -GCDI prodrugs conjugated to human serum albumin OSC-GCDIs were dissolved in Dulbecco ’s Phosphate-Buffered Saline (DPBS) containing HSA (20 mg/mL) to be concentration of 1 mM, then the mixture was shaken for 10 min at 37 °C. Unbound OSC-GCDIs were removed by washing twice with DPBS using Vivaspin 500 ultrafiltration units (10 kDa cutoff).
Following centrifugation, the samples were redissolved in 1 mL DPBS. Before incubation at 37 °C, 50 µL sample was taken and mixed with 50 µL of 1 M KOH in m ethanol solution to completely hydrolyze the conjugates and determine the initial drug concentration bound to HSA. Subsequently, the samples were incubated at 37 °C and after 1, 2, 4, 24, and 72 h incubation, 50 µL of the samples were taken and mixed with 50 µL MeCN. Then, the concentration of the released GOC was quantified by HPLC. […]

[7] = Stability of OSC-GCDIs in human serum; type: in vitro ADME; conditions: 200 μM prodrug, 37 °C
Procedure: as §1
Stability of the GCDI prodrugs were examined by incubating prodrugs in human and BALB/c serum at 37 °C and 200 μM final concentration. Briefly, each prodrug was dissolved in DMSO to be 20 mM concentration, then 10 μL of each prodrug solution was mixed with 990 μL of serum. At different time intervals, 100 μL of the samples were taken and mixed with 100 μL of MeCN. Samples were centrifuged at 14,000 rpm for 10 min at 4 °C and the supernatant was immediately frozen (−80 °C). After thawing

[8] = In vitro microsomal stability; type: in vitro ADME, rat; conditions: for half-life at 100 μM: liver microsomes; for CLint (intrinsic clearance): rat
Procedure: In vitro microsomal stability
Sprague Dawley rat microsomes were obtained from GibcoTM. NADPH was purchased from Sigma-Aldrich (Munich, Germany). Liver microsomes at 0.5 mg/mL concentration (final volume of 200 μL) were incubated in phosphate buffer (pH 7.4), containing 3 mM MgCl2. OSC-GCDI prodrug was dissolved in DMSO to be 40 mM concentration, then each prodrug solution was mixed with prepared buffer to achieve a final concentration of 100 μM (0.25% DMSO). Test compounds were incubated at 37 °C and started by the addition of the 1mM NADPH as cofactor. The samples were taken at 0, 30, 60, and 90 min. The reaction was terminated by addition of ice-cold acetonitrile/methanol (1:1, v/v). After collection, samples were centrifuged (10 min, 16,000 rpm), then the centrifuged supernatant was directly analyzed by using HPLC analysis. Metabolic half-time (t1/2) was calculated by using the equation of first order

in vitro [9] = assay: in vitro
[10] = tested on: A/Puerto Rico/8/1934 (PR8; H1N1); assay: microbe, parasite or virus in culture; conditions: Influenza A virus, MDCK
[11] = tested on: A/Hong Kong/8/1968 (HK; H3N2); assay: microbe, parasite or virus in culture; conditions: Influenza A virus, H3N2, MDCK
B/Lee/1940 (Lee) = assay: microbe, parasite or virus in culture; conditions: Influenza B virus, MDCK
[12] = target: human serum albumin (HSA) (Homo sapiens, UniProt P02768); assay: Albumin binding of OSC-GCDIs (MALDI-TOF MS); conditions: MALDI-TOF MS of trypsin-digested HSA
Procedure: Albumin binding of OSC-GCDIs
OSC-GCDI(P) (0.2 mg/mL or 10 mg/mL) was mixed with HSA (1 mg/mL) in 50 mM Tris -HCl buffer (pH 6.8). The sample was shaken for 20 min at room temperature. Unbound OSC-GCDI(P) was removed by washing three times with distilled water (DW) using Vivaspin 500 ultrafiltration units (10 kDa cutoff).
Following centrifugation, the HSA samples were placed in the condition of 8 M urea, 50 mM Tris-HCl (pH 6.8), and 5 mM DTT at 37 °C for 60 min. Then, 50 mM Tris-HCl (pH 6.8) was added until the urea concentration was less than 1 M. Trypsin Gold was then added to achieve a final protease-to-protein ratio of 1:20 (w/w). The sample was incubated at 37 °C for 60 min. The mass-to-charge ratio of the digested sample was measured by MALDI-TOF (Matrix -Assisted Laser Desorption/Ionization Time -of-Flight) MS using α-cyano-4-hydroxycinnamic acid as the matrix. […]

[13] = mice, oral, non-formulated prodrug
[14] = cited from earlier work
[15] = parameters: method as in Buss, J. L.; Hasinoff, B. B. J. Mol. Model. 2001, 7, 438–444; conditions: amine-based imides; ref Buss, J. L.; Hasinoff, B. B. J. Mol. Model. 2001, 7, 438–444; cited from earlier work
[16] = sodium phosphate buffer, pH 2, phosphate buffer pH 2.0, 37 °C, read-out: T1/2
[17] = sodium phosphate buffer, pH 6.5, phosphate buffer pH 6.5, 37 °C, read-out: T1/2
[18] = sodium phosphate buffer, pH 7.4, phosphate buffer pH 7.4, 37 °C, read-out: T1/2
[19] = sodium phosphate buffer, pH 8, phosphate buffer pH 8.0, 37 °C, read-out: T1/2
[20] = BALB/c serum, 200 μM prodrug, 37 °C, read-out: T1/2
[21] = Sprague Dawley, pH 7.4, rat liver microsome, 100 μM, 37 °C

Sequence of human serum albumin (HSA) (P02768 25-609): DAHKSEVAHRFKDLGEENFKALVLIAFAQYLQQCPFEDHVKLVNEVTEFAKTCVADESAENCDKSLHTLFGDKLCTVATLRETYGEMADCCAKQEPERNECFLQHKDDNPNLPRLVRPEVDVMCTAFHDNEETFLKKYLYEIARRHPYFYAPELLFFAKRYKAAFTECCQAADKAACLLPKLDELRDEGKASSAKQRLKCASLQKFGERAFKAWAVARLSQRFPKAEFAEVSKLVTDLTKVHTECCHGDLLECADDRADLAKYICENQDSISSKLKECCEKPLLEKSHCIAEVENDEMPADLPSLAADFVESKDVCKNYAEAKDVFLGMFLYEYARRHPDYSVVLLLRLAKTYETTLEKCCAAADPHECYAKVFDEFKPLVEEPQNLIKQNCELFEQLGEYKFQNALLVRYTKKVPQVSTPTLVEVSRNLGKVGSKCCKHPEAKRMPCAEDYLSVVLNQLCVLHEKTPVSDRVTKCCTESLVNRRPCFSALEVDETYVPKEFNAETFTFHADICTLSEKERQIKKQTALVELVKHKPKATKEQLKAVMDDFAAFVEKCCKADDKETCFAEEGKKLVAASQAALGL

Row | SMILES | logP (physchem [2]) | logD (physchem [3]) | Papp at 500 μM (in vitro [4]) | half-life at 100 μM [5, 16] | half-life at 100 μM [5, 17] | half-life at 100 μM [5, 18] | half-life at 100 μM [5, 19] | half-life at 200 μM [6, 20] | half-life at 200 μM [7] | CC50 at 3 days (in vitro [9]; dog) | EC50 [10] | EC50 [11] | EC50 (B/Lee/1940 (Lee)) | further results
1 | C=CC(=O)O [acrylic acid] |  |  |  |  |  |  |  |  |  |  |  |  |  | pKa [1]: 4.3
2 | CCC(CC)O[C@@H]1C=C(C(=O)O)C[C@H](N=C(N2C(=O)CC(C)(C)C2=O)N2C(=O)CC(C)(C)C2=O)[C@H]1NC(C)=O [OSC-GCDI(D)] | 0.98 | -0.32 | 1.66 ×10⁻⁶ cm/s | > 24 h | > 24 h | 8.25 h | 2.69 h | 2.63 h | 1.95 h | > 100000 nM | 70 ± 10 nM | 30 ± 10 nM | 13700 ± 2850 nM | half-life at 100 μM ([5]; buffer, pH 7.4, half-life): > 8 h; T1/2 ([5]; phosphate buffer pH 7.4, 37 °C): 8.252 h; half-life at 200 μM ([6]; BALB/c, serum): > 1.67 h; half-life at 100 μM [8, 21]: 6.42 h; CLint (intrinsic clearance) ([8]; microsomes): 3.60
3 | CCC(CC)O[C@@H]1C=C(C(=O)O)C[C@H](N=C(N2C(=O)c3ccccc3C2=O)N2C(=O)c3ccccc3C2=O)[C@H]1NC(C)=O [OSC-GCDI(P)] | 1.61 | 1.01 | 3.88 ± 0.31 ×10⁻⁶ cm/s | 1.57 h | 1.47 h | 0.235 h | < 0.0167 h | 0.0217 h | 0.0217 h | > 100000 nM | 30 ± 10 nM | 10 ± 10 nM | 2260 ± 400 nM | Effective permeability Pe (in vitro [4]; 500 μM): 3.07 ×10⁻⁶ cm/s; T1/2 ([5]; phosphate buffer pH 2.0, 37 °C): 1.56 h; T1/2 ([5]; phosphate buffer pH 6.5, 37 °C): 1.46 h; GOC released ([6]; BALB/c, 30 min): 37%; GOC released ([6]; BALB/c, 24 h): 68%; half-life at 200 μM ([6]; BALB/c, serum): 0.0217 h; half-life at 100 μM [8, 21]: 0.295 h; CLint (intrinsic clearance) ([8]; microsomes): 78.2; covalent conjugation to HSA [12]: covalent adducts; plasma concentration of the prodrug [13]: below detection limit
4 | CCC(CC)O[C@@H]1C=C(C(=O)O)C[C@H](NC(=N)N)[C@H]1NC(C)=O [GOC, guanidino oseltamivir carboxylate, reference compound] |  |  |  |  |  |  |  |  |  |  | 5 ± 1 nM | < 5 nM | 700 ± 150 nM | logP (physchem [2]; octanol–water, room temperature, read-out: log P): -1.35; logD (physchem [3]; octanol-phosphate buffer, read-out: log D7.4): -1.49; Effective permeability Pe (in vitro [4]): almost negligible; half-life ([8]; Sprague Dawley, microsomes, pH 7.4, rat liver microsome, 100 μM, 37 °C): 116 h; remaining GOC ([8]; rat liver microsomes, after 90-min incubation): 98.8%; CC50 (in vitro [9]; dog): > 100000 nM; oral bioavailability ([14]; in vivo, po): < 4%
5 | CCCCC1CC(=O)N(C(=N[C@H]2CC(C(=O)O)=C[C@@H](OC(CC)CC)[C@@H]2NC(C)=O)N2C(=O)CC(CCCC)C2=O)C1=O (some centres unmarked) [OSC-GCDI(B)] | 1.83 | 0.91 | 4.5 ×10⁻⁶ cm/s | > 24 h | > 24 h | 7.7 h | 2.62 h | 0.285 h | 0.875 h | > 100000 nM | 90 ± 10 nM | 40 ± 10 nM | 72400 ± 1350 nM | increase of lipophilicity of GOC via the GCDI modification (based on P) (physchem [2]): 2082 fold
6 | CCC(CC)O[C@@H]1C=C(C(=O)O)C[C@H](N=C(N2C(=O)[C@H]3CCCC[C@H]3C2=O)N2C(=O)[C@H]3CCCC[C@H]3C2=O)[C@H]1NC(C)=O [OSC-GCDI(C)] | 1.33 | 0.46 | 2.99 ×10⁻⁶ cm/s | > 24 h | 10.5 h | 1.36 h | 0.447 h | 0.397 h | 0.437 h | > 100000 nM | 10 ± 10 nM | < 5 nM | 2210 ± 200 nM | 
7 | NC12CC3CC(CC(C3)C1)C2 [AMT, Amantadine, reference compound] |  |  |  |  |  |  |  |  |  |  | > 100000 nM | 1560 ± 400 nM | > 100000 nM | CC50 at 3 days (in vitro [9]): > 100000 nM
8 | O=C1NC(=O)c2ccccc21 [phthalimide] |  |  |  |  |  |  |  |  |  |  |  |  |  | hydrolysis rate compared to succinimide [15]: 100 times faster
9 | CCC(CC)O[C@@H]1C=C(C(=O)O)C[C@H](N)[C@H]1NC(C)=O [OSC, oseltamivir carboxylate, reference compound] |  |  |  |  |  |  |  |  |  | > 100000 nM | 100 ± 10 nM | < 5 nM | 1290 ± 250 nM | 
10 | O=C1C=CC(=O)N1 [maleimide] |  |  |  |  |  |  |  |  |  |  |  |  |  | hydrolysis rate compared to succinimide [15]: 300 times faster
11 | CCOC(=O)C1=C[C@@H](OC(CC)CC)[C@H](NC(C)=O)[C@@H](N)C1 [OS-P, Oseltamivir phosphate, reference compound] | 0.22 | -0.42 | 2.27 ×10⁻⁶ cm/s |  |  |  |  |  |  |  |  |  |  | oral bioavailability ([14]; authors' response to reviewers, no reference given): 80%; oral bioavailability ([14]; in vivo, po): > 80%; half-life ([14]; in vivo): less than 1 day
